Where a SMILES comes first, the peptide text is derived from it. Bridges are numbered along the chain shown (N, C = ends). [ ]: non-standard residue; d: D form. NMeF = CN[C@@H](Cc1ccccc1)C(=O)O; NMeL = CN[C@@H](CC(C)C)C(=O)O; NMeS = CN[C@@H](CO)C(=O)O; Dap = NC[C@H](N)C(=O)O; Ava = NCCCCC(=O)O; Mpa = O=C(O)CCS

Test system in one experiment: not listed separately
The experiment in a line: Inhibition of Staphylococcus aureus Quorum sensing system AgrC-II activation after 60 to 90 minutes by beta-lactamase reporter assay.
Conditions: not given; call rule not given here
On the technique in general: In a reporter assay the amount or activity of a reporter protein is the signal.
With `CC(=O)N[C@H]1CSC(=O)[C@H](Cc2ccccc2)N(C)C(=O)[C@H](CC(C)C)NC(=O)[C@H](CO)NC(=O)[C@H](CO)NC1=O` (Ac-CSSL[NMeF]; thioester 1-C), the IC50 entry is recorded as “Not Active”.
For the compound `CC(=O)N[C@H]1CSC(=O)[C@H](Cc2ccccc2)NC(=O)[C@H](CC(C)C)N(C)C(=O)[C@H](CO)NC(=O)[C@H](CO)NC1=O` (Ac-CSS[NMeL]F; thioester 1-C), the concentration for half-maximal inhibition (IC50) result is given as “Not Active”.

The experiment is the same for the next values; noted with them: read-out: IC50.
Turning to `CC(=O)N[C@H]1CSC(=O)[C@H](Cc2ccccc2)NC(=O)[C@H](CC(C)C)NC(=O)CCCCNC1=O` (Ac-C[Ava]LF; thioester 1-C), the IC50 is 507000 nM.
For the compound `CC(C)C[C@@H]1NC(=O)[C@H](CO)NC(=O)[C@H](CO)NC(=O)CCSC(=O)[C@H](Cc2ccccc2)NC1=O` ([Mpa]SSLF; thioester 1-C), the 50% inhibitory concentration (IC50) stood at 47300 nM.
As to `CC(=O)N[C@H]1CNC(=O)[C@H](Cc2ccccc2)NC(=O)[C@H](CC(C)C)NC(=O)[C@H](CO)NC(=O)[C@H](CO)NC1=O` (Ac-[Dap]SSLF; lactam 1-C), the IC50 was 167000 nM.
For `CC(=O)N[C@H]1CSC(=O)[C@H](Cc2ccccc2)NC(=O)[C@H](CC(C)C)NC(=O)[C@H](CO)NC(=O)CNC1=O` (Ac-CGSLF; thioester 1-C), the IC50 worked out at 1160 nM.
Same read-out and setting: the same measure for `CC[C@H](C)[C@@H]1NC(=O)[C@H](Cc2ccccc2)NC(=O)[C@H](C)NC(=O)[C@@H](NC(=O)[C@@H](NC(=O)[C@H](CO)NC(=O)[C@@H](N)Cc2ccc(O)cc2)[C@@H](C)O)CSC(=O)[C@H](CSC)NC1=O` (H-YSTCAFIC(Me); thioester 4-C): 4 nM.
As for `CC(=O)N[C@H]1CSC(=O)[C@H](Cc2ccccc2)NC(=O)[C@H](CC(C)C)NC(=O)CNC(=O)[C@H](CO)NC1=O` (Ac-CSGLF; thioester 1-C), the IC50 amounted to 194 nM.
As for `CC(=O)N[C@H]1CSC(=O)[C@H](Cc2ccccc2)NC(=O)[C@H](CC(C)C)NC(=O)[C@H](CO)N(C)C(=O)[C@H](CO)NC1=O` (Ac-CS[NMeS]LF; thioester 1-C), the IC50 is 1050 nM.
On to `CC(=O)N[C@H]1CSC(=O)[C@H](Cc2ccccc2)NC(=O)[C@H](CC(C)C)NC(=O)CNC(=O)CNC1=O` (Ac-CGGLF; thioester 1-C), for which the IC50 is 238 nM.
Same read-out and setting: to `CC(=O)N[C@H]1CSC(=O)[C@H](Cc2ccccc2)NC(=O)[C@H](CC(C)C)NC(=O)[C@H](CO)NC(=O)[C@H](CO)N(C)C1=O` (Ac-C[NMeS]SLF; thioester 1-C) belongs 7880 nM.

Test system in the next experiment: not listed separately
The experiment in a line: Inhibition of Staphylococcus aureus Quorum sensing system AgrC-I activation after 60 to 90 minutes by beta-lactamase reporter assay.
Conditions: not given
As to `CC(=O)N[C@H]1CSC(=O)[C@H](Cc2ccccc2)N(C)C(=O)[C@H](CC(C)C)NC(=O)[C@H](CO)NC(=O)[C@H](CO)NC1=O` (Ac-CSSL[NMeF]; thioester 1-C), the half-maximal inhibitory concentration (IC50) result is “Not Active”.
For `CC(=O)N[C@H]1CSC(=O)[C@H](Cc2ccccc2)NC(=O)[C@H](CC(C)C)N(C)C(=O)[C@H](CO)NC(=O)[C@H](CO)NC1=O` (Ac-CSS[NMeL]F; thioester 1-C), the IC50 entry is on record as “Not Active”.

The same experiment, now with this note: read-out: IC50.
On to `CC(=O)N[C@H]1CSC(=O)[C@H](Cc2ccccc2)NC(=O)[C@H](CC(C)C)NC(=O)CCCCNC1=O` (Ac-C[Ava]LF; thioester 1-C), for which the 50% inhibitory concentration (IC50) came out at 1140 nM.
As to `CC(C)C[C@@H]1NC(=O)[C@H](CO)NC(=O)[C@H](CO)NC(=O)CCSC(=O)[C@H](Cc2ccccc2)NC1=O` ([Mpa]SSLF; thioester 1-C), the IC50 came out at 1680 nM.
Consider `CC(=O)N[C@H]1CNC(=O)[C@H](Cc2ccccc2)NC(=O)[C@H](CC(C)C)NC(=O)[C@H](CO)NC(=O)[C@H](CO)NC1=O` (Ac-[Dap]SSLF; lactam 1-C), for which the IC50 worked out at 1390 nM.
Same read-out and setting: to `CC(=O)N[C@H]1CSC(=O)[C@H](Cc2ccccc2)NC(=O)[C@H](CC(C)C)NC(=O)[C@H](CO)NC(=O)CNC1=O` (Ac-CGSLF; thioester 1-C) belongs 189 nM; to `CC[C@H](C)[C@@H]1NC(=O)[C@H](Cc2ccccc2)NC(=O)[C@H](C)NC(=O)[C@@H](NC(=O)[C@@H](NC(=O)[C@H](CO)NC(=O)[C@@H](N)Cc2ccc(O)cc2)[C@@H](C)O)CSC(=O)[C@H](CSC)NC1=O` (H-YSTCAFIC(Me); thioester 4-C), 21 nM.
Take `CC(=O)N[C@H]1CSC(=O)[C@H](Cc2ccccc2)NC(=O)[C@H](CC(C)C)NC(=O)CNC(=O)[C@H](CO)NC1=O` (Ac-CSGLF; thioester 1-C): the IC50 is 40 nM.
The same measure, in the same setting: to `CC(=O)N[C@H]1CSC(=O)[C@H](Cc2ccccc2)NC(=O)[C@H](CC(C)C)NC(=O)[C@H](CO)N(C)C(=O)[C@H](CO)NC1=O` (Ac-CS[NMeS]LF; thioester 1-C) belongs 319 nM.
Regarding `CC(=O)N[C@H]1CSC(=O)[C@H](Cc2ccccc2)NC(=O)[C@H](CC(C)C)NC(=O)CNC(=O)CNC1=O` (Ac-CGGLF; thioester 1-C), the IC50 was 77 nM.
Same read-out and setting: to `CC(=O)N[C@H]1CSC(=O)[C@H](Cc2ccccc2)NC(=O)[C@H](CC(C)C)NC(=O)[C@H](CO)NC(=O)[C@H](CO)N(C)C1=O` (Ac-C[NMeS]SLF; thioester 1-C) belongs 639 nM.

A further experiment concerns Chromobacterium violaceum. The experiment in a line: In vivo inhibition of violacein production in Chromobacterium violaceum. The class given is functional, organism-based.
Conditions: not given
Consider `O=C(CCCOc1ccc(Cl)cc1)NC1CCOC1=O` (stereo unspecified), for which the IC50 was 295 nM.
For the compound `Cc1cc(Cl)ccc1OCCCC(=O)NC1CCSC1=O` (stereo unspecified), half-maximal inhibition (IC50) required 1200 nM.
Consider `O=C(CCCOc1ccc(Cl)cc1)NC1CCSC1=O` (stereo unspecified), for which the half-inhibitory concentration (IC50) stood at 723 nM.

Another experiment concerns the target T1, Autoinducer 1 sensor kinase/phosphatase LuxN (Vibrio harveyi, UniProt P0C5S6).
T1 sequence (P0C5S6 whole entry): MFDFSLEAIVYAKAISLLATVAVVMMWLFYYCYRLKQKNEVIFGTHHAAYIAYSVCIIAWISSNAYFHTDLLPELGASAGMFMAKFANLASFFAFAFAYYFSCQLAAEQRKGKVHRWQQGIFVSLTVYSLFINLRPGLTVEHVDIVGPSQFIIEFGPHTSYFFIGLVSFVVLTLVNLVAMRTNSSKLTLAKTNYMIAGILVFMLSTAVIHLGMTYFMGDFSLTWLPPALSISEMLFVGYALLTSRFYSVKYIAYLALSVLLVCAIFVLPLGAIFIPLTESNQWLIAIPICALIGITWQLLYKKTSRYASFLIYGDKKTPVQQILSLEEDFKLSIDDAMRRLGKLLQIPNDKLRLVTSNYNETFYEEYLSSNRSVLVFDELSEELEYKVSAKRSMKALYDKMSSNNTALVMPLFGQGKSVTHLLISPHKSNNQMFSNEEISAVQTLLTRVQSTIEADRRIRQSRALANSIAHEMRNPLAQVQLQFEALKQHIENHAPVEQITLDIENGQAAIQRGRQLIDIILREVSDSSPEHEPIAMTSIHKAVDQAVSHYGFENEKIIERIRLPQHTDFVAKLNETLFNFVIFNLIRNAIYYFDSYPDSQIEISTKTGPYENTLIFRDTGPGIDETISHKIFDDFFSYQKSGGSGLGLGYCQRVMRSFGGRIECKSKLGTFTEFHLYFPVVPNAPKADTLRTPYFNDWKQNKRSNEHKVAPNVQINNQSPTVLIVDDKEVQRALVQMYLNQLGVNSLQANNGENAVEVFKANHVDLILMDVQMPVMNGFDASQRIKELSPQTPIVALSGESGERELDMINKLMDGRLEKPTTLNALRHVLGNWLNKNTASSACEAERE
The experiment in a line: Inhibition of LuxN-dependent bioluminescence in Vibrio harveyi.
Conditions: not given
In turn, `O=C(c1ccc(Cl)cc1)c1ccc(S(=O)(=O)c2ccc(Cl)cc2)cc1` yielded a half-maximal inhibitory concentration (IC50) of 2600 nM.
On to `CC(C)(c1ccccc1)c1ccc(OCC(=O)NC2CCCC2)cc1`, for which half-maximal inhibition (IC50) was put at 2400 nM.
On to `CC(=O)N1CCc2ccc(S(=O)(=O)NC(CC(C)C)C(=O)NCc3ccc(Cl)cc3)cc21` (stereo unspecified), for which half-maximal inhibition (IC50) was put at 2700 nM.
`CC(C)OC(=O)CSc1nc2ccccc2[nH]1` registered a half-maximal inhibitory concentration (IC50) of 62300 nM.
Regarding `COc1ccc(CNC(=O)C(NS(=O)(=O)c2ccc3nc(C)sc3c2)C(C)C)cc1` (stereo unspecified), half-maximal inhibition (IC50) was put at 2900 nM.

Test system in another experiment: not listed separately
Nature of the experiment: Induction of quorum sensing activity in Pseudomonas aeruginosa assessed as maximal induction of LasR-dependent yellow fluorescent protein emission by luminescence assay.
Conditions: not given
Take `O=C(Oc1c(Br)cc(Br)cc1CNC(=O)c1ccccc1[N+](=O)[O-])c1ccccc1Cl`: the 50% effective concentration (EC50) was 14 nM.
`O=C(Oc1c(Br)cc(Br)cc1CNC(=O)c1ccccc1Cl)c1ccc(F)cc1`: the EC50 stood at 240 nM.
Consider `Cc1cc(Br)cc(CNC(=O)c2ccccc2Cl)c1OC(=O)c1ccc(Cl)cc1Cl`, for which the concentration for a half-maximal effect (EC50) worked out at 920 nM.

Test system in a further experiment: not listed separately
Nature of the experiment: Inhibition of quorum sensing in Pseudomonas aeruginosa assessed as inhibition of LasR-dependent yellow fluorescent protein emission by luminescence assay.
Conditions: not given
Take `CCCCCCCCCNC(=O)CC(=O)c1ccccc1`: the IC50 is 10000 nM.

In the next experiment the target is T2, Transcriptional activator protein LasR (Pseudomonas aeruginosa (strain ATCC 15692 / PAO1 / 1C / PRS 101 / LMG12228), UniProt P25084).
T2 sequence (P25084 whole entry): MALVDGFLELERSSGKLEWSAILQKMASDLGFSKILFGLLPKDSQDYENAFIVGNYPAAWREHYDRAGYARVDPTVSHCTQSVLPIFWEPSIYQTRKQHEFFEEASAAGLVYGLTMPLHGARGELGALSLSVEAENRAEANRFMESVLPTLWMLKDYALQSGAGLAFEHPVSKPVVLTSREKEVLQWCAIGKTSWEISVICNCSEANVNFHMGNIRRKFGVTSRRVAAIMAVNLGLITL
Nature of the experiment: Antagonist activity at Pseudomonas aeruginosa LasR receptor assessed as inhibition of bioluminescence by reporter gene assay.
Conditions: not given
The class given is functional.
Take `O=C(CCCCCCCCCNC(=O)CBr)CC(=O)N[C@H]1CCOC1=O`: the IC50 was found to be 100000 nM.
For the compound `O=C(CCCCCCCCN=C=S)CC(=O)N[C@H]1CCOC1=O`, the IC50 came to 300000 nM.
Take `O=C(CCCCCCCCCN=C=S)CC(=O)N[C@H]1CCOC1=O`: the IC50 came out at 113000 nM.
In the case of `O=C(CCCCCCCCCCN=C=S)CC(=O)N[C@H]1CCOC1=O`, the IC50 was found to be 45200 nM.

A further experiment addresses T3, Transcriptional activator protein LuxR (Aliivibrio fischeri, UniProt P12746).
T3 sequence (P12746 whole entry): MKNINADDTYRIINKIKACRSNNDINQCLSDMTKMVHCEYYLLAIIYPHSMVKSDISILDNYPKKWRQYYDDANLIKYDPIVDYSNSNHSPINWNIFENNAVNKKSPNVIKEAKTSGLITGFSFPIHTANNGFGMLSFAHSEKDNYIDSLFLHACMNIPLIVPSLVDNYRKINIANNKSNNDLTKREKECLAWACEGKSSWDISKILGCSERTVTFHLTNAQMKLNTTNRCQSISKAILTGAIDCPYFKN
Nature of the experiment: Antagonist activity at Vibrio fischeri luxR receptor in presence of 5 uM 3-oxo-C6-HSL. The format is functional.
Conditions: not given
Regarding `O=C(Cc1ccc(C(F)(F)F)cc1)N[C@H]1CCOC1=O`, the IC50 was 610 nM.
Regarding `CCCCCCCC(=O)N[C@H]1CCOC1=O`, the IC50 is 770 nM.

Another experiment has as its target T2, Transcriptional activator protein LasR. The experiment in a line: Antagonist activity at Pseudomonas aeruginosa LasR receptor expressed in Escherichia coli in presence of 7.5 nM natural auto-inducer 3-oxo-C12-HSL. The class given is functional.
Conditions: not given
As for `O=C(CCc1ccc(Br)cc1)N[C@H]1CCOC1=O`, the IC50 was found to be 340 nM.

A word on the IC50: it is the concentration that inhibits the measured activity by half. Broadly, the EC50 is the concentration needed to bring the measured effect to its halfway point.

The record behind these values is ChEMBL document CHEMBL1821627, “Medicinal chemistry as a conduit for the modulation of quorum sensing” (J Med Chem, 2010).
